Measurements as given in ChEMBL document CHEMBL4043139, “Fluoro and pentafluorothio analogs of the antitumoral curcuminoid EF24 with superior antiangiogenic and vascular-disruptive effects” (Bioorg Med Chem, 2017).
Calls of active or inactive are those of the source. No cut-off for these calls is given here.

Tests used:
Gallus gallus [1] = assay: Vascular disruptive activity in 6 days post fertilized chicken egg assessed as area covered by blood vessels at 10 nmol administered topically measured after 6 hrs by light microscopic analysis relative to control; format: functional
Gallus gallus [2] = assay: Vascular disruptive activity in 6 days post fertilized chicken egg chorioallantoic/vitelline membrane at 10 nmol administered topically measured up to 24 hrs by stereo-microscopic analysis; format: functional
HT-29 [3] = assay: Cell cycle arrest in human HT-29 cells assessed as accumulation at S phase at 5 uM after 24 hrs by propidium iodide staining based flow cytometric analysis (reference value: 15.6 +/- 0.3%); format: functional
518A2 [4] = assay: Anti-migratory activity in human 518A2 cells assessed as wound closure at 250 nM after 48 hrs by light microscopic analysis (reference value: 100%); format: functional
HT-29 [5] = assay: Cell cycle arrest in human HT-29 cells assessed as accumulation at G2/M phase at 2.5 uM after 24 hrs by propidium iodide staining based flow cytometric analysis (reference value: 15.5 +/- 0.5%); format: functional
518A2 [6] = assay: Cytotoxicity against human 518A2 cells after 72 hrs by MTT assay; format: functional, cell-based; details: for IC50: 518A2, 72 h
Homo sapiens [7] = species: Homo sapiens; assay: Inhibition of NF-kappaB in human 518A2 cells assessed as reduction in p65 subunit expression at 1 to 2 uM after 24 hrs by Western blot analysis; format: cell-based
DLD-1 = assay: Cytotoxicity against human DLD1 cells after 72 hrs by MTT assay; format: functional, cell-based; details: for IC50: DLD-1, 72 h
HT-29 [8] = assay: Cell cycle arrest in human HT-29 cells assessed as accumulation at S phase at 2.5 uM after 24 hrs by propidium iodide staining based flow cytometric analysis (reference value: 15.6 +/- 0.3%); format: functional
HT-29 [9] = assay: Cell cycle arrest in human HT-29 cells assessed as accumulation at sub-G1 phase at 1 uM after 24 hrs by propidium iodide staining based flow cytometric analysis (reference value: 0.9 +/- 0.1%); format: functional
PANC-1 = assay: Cytotoxicity against human PANC1 cells after 72 hrs by MTT assay; format: functional, cell-based; details: for IC50: PANC-1, 72 h
518A2 [10] = assay: Anti-migratory activity in human 518A2 cells assessed as wound closure at 250 nM after 24 hrs by light microscopic analysis; format: functional, cell-based
[11] = (§1) Cytotoxicity against human KB-V1/Vbl cells after 72 hrs by MTT assay; format: functional, cell-based
KB-V1/Vbl = assay: as §1; format: functional, cell-based
U-87MG ATCC [12] = assay: (§2) Cytotoxicity against human U87 cells after 72 hrs by MTT assay; format: functional, cell-based
[13] = as §2; format: functional, cell-based, U-87MG ATCC; details: U-87 MG
HT-29 [14] = assay: Cell cycle arrest in human HT-29 cells assessed as accumulation at sub-G1 phase at 2.5 uM after 24 hrs by propidium iodide staining based flow cytometric analysis (reference value: 0.9 +/- 0.1%); format: functional
[15] = (§3) Cytotoxicity against human MCF7/Topo cells after 72 hrs by MTT assay; format: functional, cell-based
MCF7/Topo = assay: as §3; format: functional, cell-based
Gallus gallus [16] = assay: Vascular disruptive activity in 6 days post fertilized chicken egg chorioallantoic/vitelline membrane assessed as degradation of blood vessels at 10 nmol administered topically measured after 6 hrs by stereo-microscopic analysis; format: functional
HT-29 [17] = assay: Cell cycle arrest in human HT-29 cells assessed as accumulation at G1 phase at 2.5 uM after 24 hrs by propidium iodide staining based flow cytometric analysis (reference value: 68 +/- 0.9%); format: functional
Gallus gallus [18] = assay: Vascular disruptive activity in 6 days post fertilized chicken egg chorioallantoic/vitelline membrane assessed as disruption of capillary reticulation at 10 nmol administered topically measured after 6 hrs by stereo-microscopic analysis; format: functional
HT-29 [19] = assay: Cell cycle arrest in human HT-29 cells assessed as accumulation at G1 phase at 5 uM after 24 hrs by propidium iodide staining based flow cytometric analysis (reference value: 68 +/- 0.9%); format: functional
HCT-116 = assay: Cytotoxicity against human HCT116 cells after 72 hrs by MTT assay; format: functional, cell-based; details: for IC50: HCT-116, 72 h
HT-29 [20] = assay: Cell cycle arrest in human HT-29 cells assessed as accumulation at S phase at 1 uM after 24 hrs by propidium iodide staining based flow cytometric analysis (reference value: 15.6 +/- 0.3%); format: functional
U-87MG ATCC [21] = assay: Anti-vasculogenic activity in human U87 cells assessed as reduction in formation of blood-vessel like tubular structures at 2.5 uM after 24 hrs by matrigel based light microscopic analysis; format: functional, cell-based
U-87MG ATCC [22] = assay: Anti-vasculogenic activity in human U87 cells assessed as reduction in formation of cord-like structures at 2.5 uM after 24 hrs by matrigel based light microscopic analysis; format: functional, cell-based
HT-29 [23] = assay: Upregulation of cyclin B1 expression in human HT-29 cells at 1 to 2.5 uM after 24 hrs by Western blot analysis; format: functional, cell-based
[24] = Cytotoxicity against human U87 cells assessed as cell viability at 10 nmol after 24 hrs by MTT assay relative to control; format: cell-based, U-87MG ATCC; details: read-out: Activity
HT-29 [25] = assay: Cell cycle arrest in human HT-29 cells assessed as accumulation at sub-G1 phase at 5 uM after 24 hrs by propidium iodide staining based flow cytometric analysis (reference value: 0.9 +/- 0.1%); format: functional
HT-29 [26] = assay: Cytotoxicity against human HT-29 cells after 72 hrs by MTT assay; format: functional, cell-based; details: for IC50: HT-29, 72 h
[27] = Cytotoxicity against HDFa after 72 hrs by MTT assay; format: cell-based; details: Homo sapiens
HT-29 [28] = assay: Cell cycle arrest in human HT-29 cells assessed as accumulation at G1 phase at 1 uM after 24 hrs by propidium iodide staining based flow cytometric analysis (reference value: 68 +/- 0.9%); format: functional
HT-29 [29] = assay: Cell cycle arrest in human HT-29 cells assessed as accumulation at G2/M phase at 1 uM after 24 hrs by propidium iodide staining based flow cytometric analysis (reference value: 15.5 +/- 0.5%); format: functional
HT-29 [30] = assay: Cell cycle arrest in human HT-29 cells assessed as accumulation at G2/M phase at 5 uM after 24 hrs by propidium iodide staining based flow cytometric analysis (reference value: 15.5 +/- 0.5%); format: functional
U-87MG ATCC [31] = assay: Anti-vasculogenic activity in human U87 cells assessed as reduction in formation of small stray colonies at 2.5 uM after 24 hrs by matrigel based light microscopic analysis; format: functional, cell-based
U-87MG ATCC [32] = assay: Vascular disruptive activity in human U87 cells assessed as disruption of preformed tubular networks at 1 uM after 24 hrs by matrigel based light microscopic analysis; format: functional, cell-based
Homo sapiens [33] = species: Homo sapiens; assay: Inhibition of NF-kappaB in human 518A2 cells assessed as reduction in p65 subunit expression at 0.5 to 1 uM after 24 hrs by Western blot analysis; format: cell-based
[34] = Cytotoxicity against human U87 cells assessed as effect on cell viability at 1 uM after 24 hrs by MTT assay; format: cell-based; details: u-87mg atcc
Gallus gallus [35] = assay: Vascular disruptive activity in 6 days post fertilized chicken egg chorioallantoic/vitelline membrane at 10 nmol administered topically measured after 24 hrs by stereo-microscopic analysis; format: functional
Gallus gallus [36] = assay: Toxicity in 6 days post fertilized chicken egg at 10 nmol administered topically; details: in vivo, topical_or_ocular, 144 h
Danio rerio = species: Danio rerio; assay: Antiangiogenic activity in 72 hrs post fertilized zebra fish embryo harboring fli1a:EGFP assessed as area of subintestinal veins at 5 uM after 48 hrs by fluorescence microscopic analysis (reference value: 100%); format: functional
U-87MG ATCC [37] = assay: Anti-vasculogenic activity in human U87 cells assessed as reduction in formation of cord-like structures at 1.5 uM after 24 hrs by matrigel based light microscopic analysis; format: functional, cell-based
HT-29 [38] = assay: Upregulation of cyclin B1 expression in human HT-29 cells at 2.5 to 5 uM after 24 hrs by Western blot analysis; format: functional, cell-based
U-87MG ATCC [39] = assay: Anti-vasculogenic activity in human U87 cells assessed as reduction in formation of blood-vessel like tubular structures at 1.5 uM after 24 hrs by matrigel based light microscopic analysis; format: functional, cell-based
Gallus gallus [40] = assay: Vascular disruptive activity in 6 days post fertilized chicken egg chorioallantoic/vitelline membrane assessed as degradation of blood vessels at 10 nmol administered topically measured after 6 to 24 hrs by stereo-microscopic analysis; format: functional

## COc1cc(/C=C/C(=O)CC(=O)/C=C/c2ccc(O)c(OC)c2)ccc1O
Gallus gallus [1]
  Activity: inactive
Gallus gallus [2]
  Activity: inactive

## CN1C/C(=C\c2c(F)cc(F)cc2F)C(=O)/C(=C/c2c(F)cc(F)cc2F)C1
Gallus gallus [1]
  Activity: 40%
HT-29 [3]
  Activity: 8.1%
518A2 [4]
  Activity: Active
HT-29 [5]
  Activity: 37%
518A2 [6]
  Activity: Dose-dependent effect
  IC50: > 10000 nM
Homo sapiens [7]
  inhibition: Active
DLD-1
  Activity: Dose-dependent effect
  IC50: > 10000 nM
HT-29 [8]
  Activity: 7.4%
HT-29 [9]
  Activity: 5%
PANC-1
  Activity: Dose-dependent effect
  IC50: > 10000 nM
518A2 [10]
  Activity: Active
[11]
  IC50: 820 nM
KB-V1/Vbl
  Activity: Dose-dependent effect
U-87MG ATCC [12]
  Activity: Dose-dependent effect
[13]
  IC50: > 10000 nM
HT-29 [14]
  Activity: 30.1%
[15]
  IC50: 2100 nM
MCF7/Topo
  Activity: Dose-dependent effect
Gallus gallus [16]
  Activity: Active
HT-29 [17]
  Activity: 25.5%
Gallus gallus [18]
  Activity: Active
HT-29 [19]
  Activity: 22.2%
HCT-116
  Activity: Dose-dependent effect
  IC50: > 10000 nM
HT-29 [20]
  Activity: 18.3%
U-87MG ATCC [21]
  Activity: inactive
U-87MG ATCC [22]
  Activity: inactive
HT-29 [23]
  Activity: Active
[24]
  viability at 24 h, 10 nmol: > 85%
HT-29 [25]
  Activity: 32.7%
HT-29 [26]
  Activity: Dose-dependent effect
  IC50: > 10000 nM
[27]
  IC50: > 10000 nM
HT-29 [28]
  Activity: 58.9%
HT-29 [29]
  Activity: 17.8%
HT-29 [30]
  Activity: 36.9%

## CN1C/C(=C\c2cc(F)c(F)cc2F)C(=O)/C(=C/c2cc(F)c(F)cc2F)C1
U-87MG ATCC [31]
  Activity: inactive
Gallus gallus [1]
  Activity: 44%
HT-29 [3]
  Activity: 28.3%
518A2 [4]
  Activity: Active
HT-29 [5]
  Activity: 23.2%
U-87MG ATCC [32]
  Activity: Active
518A2 [6]
  Activity: Dose-dependent effect
  IC50: 1600 nM
DLD-1
  Activity: Dose-dependent effect
  IC50: 1800 nM
HT-29 [8]
  Activity: 13%
HT-29 [9]
  Activity: 2.3%
PANC-1
  Activity: Dose-dependent effect
  IC50: 1600 nM
518A2 [10]
  Activity: Active
[11]
  IC50: 720 nM
KB-V1/Vbl
  Activity: Dose-dependent effect
Homo sapiens [33]
  inhibition: Active
[34]
  Activity: Non-Toxic
U-87MG ATCC [12]
  Activity: Dose-dependent effect
[13]
  IC50: 3100 nM
HT-29 [14]
  Activity: 17%
[15]
  IC50: 1600 nM
MCF7/Topo
  Activity: Dose-dependent effect
Gallus gallus [16]
  Activity: Active
HT-29 [17]
  Activity: 46.8%
Gallus gallus [18]
  Activity: Active
Gallus gallus [35]
  Activity: inactive
HT-29 [19]
  Activity: 28.2%
HCT-116
  Activity: Dose-dependent effect
  IC50: 1500 nM
HT-29 [20]
  Activity: 18.7%
U-87MG ATCC [21]
  Activity: inactive
U-87MG ATCC [22]
  Activity: inactive
HT-29 [23]
  Activity: Active
[24]
  viability at 24 h, 10 nmol: > 85%
HT-29 [25]
  Activity: 19.7%
Gallus gallus [36]
  Activity: Non-Toxic
HT-29 [26]
  Activity: Dose-dependent effect
  IC50: 840 nM
[27]
  IC50: > 10000 nM
HT-29 [28]
  Activity: 61.3%
Danio rerio
  Activity: 39%
HT-29 [29]
  Activity: 17.7%
HT-29 [30]
  Activity: 23.7%

## O=C1/C(=C/c2ccccc2F)CNC/C1=C\c1ccccc1F
U-87MG ATCC [37]
  Activity: Active
Gallus gallus [1]
  Activity: 43%
HT-29 [3]
  Activity: 22.6%
HT-29 [5]
  Activity: 25.9%
U-87MG ATCC [32]
  Activity: Active
518A2 [6]
  Activity: Dose-dependent effect
  IC50: 1800 nM
DLD-1
  Activity: Dose-dependent effect
  IC50: 1300 nM
HT-29 [8]
  Activity: 22.3%
HT-29 [9]
  Activity: 3.3%
PANC-1
  Activity: Dose-dependent effect
  IC50: 1500 nM
[11]
  IC50: 1100 nM
KB-V1/Vbl
  Activity: Dose-dependent effect
Homo sapiens [33]
  inhibition: Active
[34]
  Activity: Non-Toxic
U-87MG ATCC [12]
  Activity: Dose-dependent effect
[13]
  IC50: 1400 nM
HT-29 [14]
  Activity: 12.9%
[15]
  IC50: 2200 nM
MCF7/Topo
  Activity: Dose-dependent effect
HT-29 [38]
  Activity: Active
U-87MG ATCC [39]
  Activity: Active
HT-29 [17]
  Activity: 38.9%
HT-29 [19]
  Activity: 35.8%
HCT-116
  Activity: Dose-dependent effect
  IC50: 1500 nM
HT-29 [20]
  Activity: 21%
[24]
  viability at 24 h, 10 nmol: > 85%
HT-29 [25]
  Activity: 7.1%
Gallus gallus [40]
  Activity: Active
HT-29 [26]
  Activity: Dose-dependent effect
  IC50: 1600 nM
[27]
  IC50: 8500 nM
HT-29 [28]
  Activity: 59.1%
Danio rerio
  Activity: 74%
HT-29 [29]
  Activity: 16.6%
HT-29 [30]
  Activity: 34.4%
